The values below come from article PMC5078025, “Necrosis-inducing peptide has the beneficial effect on killing tumor cells through neuropilin (NRP-1) targeting” (Oncotarget, 2016).

Bridge positions count the residues as written; N and C are the ends. Ends that are not written are not given here. Peptide text beside a SMILES is read from it.

One data set is described as follows: Serum AST and ALT assays. The data set is classed as in vivo, mice. On the procedure:
To assay the activities of ALT and AST, mouse serum was prepared by centrifuging blood at 2500 × g for 15 minutes at 4°C. Enzyme activities were determined, according to the manufacturer's instructions. […]
the first injection of the peptides. […]
necrosis in tail vein upon injection.
“Slow” means not moving around in the cage.
“Normal” means normally moving around in the cage.
(§1) Abbreviation: NR; no regression, ND; not determined. […]
aminotransferase) in mice treated with TU17:MTD
Treatment Serum aminotransferase (karman units/ml)
White blood Hemoglobin Platelets Neutrophils Lymphocyts Monocytes
Treatments cells (g/dl) (×103 cell/μl) (%) (%) (%)

Another data set concerns BALB/c mice. The experiment in a line: Toxicity and movement activity after i.v. injection. The following applies: for Movement Activities: BALB/c (around 20 gm) mice, i.v. single dose 75 μl of 1 mM, within 30 minutes; for toxicity by mouse movements: BALB/c mice, i.v. single dose 75 μl of 1 mM per mouse, movements within 30 minutes, observed up to one week. On the procedure: To design a MTD peptide anti-cancer drug, the MTD peptide was fused to various known tumor-homing motifs through its N-terminal or C-terminal region, and a linker was introduced between these two motifs to impart flexibility and minimize steric hindrance (Figure 1A, Supplementary Table S1). The MTD peptides fused with tumor-homing motifs (hereafter designated TU:MTDs) were synthesized as linear or cyclic entities using L-amino acids (Supplementary Table S1), and were evaluated for their killing activity using CT26 cells in vitro (Supplementary Figure S1). […] Thus, BALB/c mouse movements were also evaluated within 30 minutes of the intravenous injection of a single dose of 75 μl of 1 mM TU:MTDs per mouse. […] We also searched for a TU:MTD with a potent in vivo effect by observing tumor volumes in three BALB/c mice bearing CT26 adenocarcinoma that were injected with 100 μl of 1 mM TU:MTDs per day for 2 or 3 consecutive days (Figure 1B). […] The tumor-homing motif of TU17:MTD has a “RPARPAR” sequence containing the C-end rule (CendR) element that has known to bind to neuropilin-1 (NRP-1), although the “RPARPAR” sequence is located at the N-terminus of the MTD rather than at the C-terminus. […]
1 mM) were i.v. injected into BALB/c (around 20 gm) mice at a single dose. “Slow” means not moving around in the cage.
“Normal” means normally moving around in the cage. “Toxic” means necrosis in tail vein within 2 ~ 3 days after injection.
as §1

The next data set concerns CT26 cells. The experiment in a line: XTT cell viability / killing activity in CT26 cells. The data set is classed as cell-based. The following applies: CT26 cells, TU:MTDs 0 ~ 20 μM, 30 minutes, XTT. How it is done:
Figure 1 Identification of TU17:MTD as a tumor targeting peptide (A) Schematic diagram of the fusion peptides consisting of the tumor-homing motif, linker, and mitochondrial targeting domain (MTD). (B) Tumors were generated over 2 weeks after s.c. injection of CT26 cells into the backs of BALB/c mice. When tumor volumes reached palpable size, the indicated TU:MTDs (100 μl of 1 mM TU:MTDs) or PBS were administrated i.v. twice or three times. […] Arrows indicate the points of peptide injection. P values < 0.02 (control group vs TU17:MTD at day 5, 6, 7, 8, and 9) (C) HCT116, HeLa, A549, MCF-7, PC3, and BJAB cells were treated with TU17:MTD (0 ~ 20 μM) for 30 minutes, and cell viability was monitored using XTT assays. *P < 0.05 (D) Primary splenocytes and macrophages were treated with TU17:MTD (0 ~ 20 μM) for 30 minutes, and cell viability was monitored by XTT assay. *P < 0.05 (E) CT26 cells were treated with R8:MTD, TU17:MTD, TU17-2:MTD or TU17:MTD^4A (0 ~ 40 μM) for 4 hours, and cell viability was monitored by XTT assay. Results in C to E are expressed as means ± SD (triplicates), and are representative of at least two independent experiments. P values are for experimental groups versus controls and were calculated using Dunnett's t-test. *P < 0.05.
Figure 5 Anti-NRP-1 antibody blocks TU17:MTD-induced necrosis (A) CT26 cells (2 × 10^4 cells/cm^2) were treated with TU17:MTD-FAM (500 nM) peptide or TU17^mut:MTD (500 nM) peptide. […] The viability was measured by using the XTT assay. *P < 0.05, **P < 0.01. […] The percentage of FAM-positive cells (%) were determined (n = over 200 cells). *P < 0.05, ***P < 0.001.
Cells were cultured in 96 well plates (2 × 10^5) overnight and treated with TU:MTDs. Cell viabilities were assessed using a XTT-based colorimetric assay kit, according to the manufacturer's instructions. […]
Supplementary FigureS1: Killing activity of TU:MTDs in CT26 cells. CT26 cells were treated with TU:MTDs (0 ~ 20 μM) for 30 minutes, and cell viability was monitored using XTT assays. […]

[1] abbreviates: CCl4-treated mice, chemically-induced liver damage model.

`ClC(Cl)(Cl)Cl` [CCl4]: in the data set “Serum AST and ALT assays” (setting [1]), the “Serum aminotransferase ALT” value came to 558.8 ± 7.2 karman units/ml and the “Serum aminotransferase AST” value is listed as 42.8 ± 3.7 karman units/ml. The “serum levels of AST and ALT” value in the data set “Serum AST and ALT assays” (mice) was “substantially higher”.

Turning to `CC[C@H](C)[C@H](NC(=O)[C@H](CC(C)C)NC(=O)[C@H](CC(N)=O)NC(=O)[C@H](CC(C)C)NC(=O)[C@H](CC(C)C)NC(=O)[C@H](CCCCN)NC(=O)CNC(=O)CNC(=O)[C@H](CS)NC(=O)[C@H](CCCNC(=N)N)NC(=O)CNC(=O)[C@H](CC(N)=O)NC(=O)[C@@H](N)CS)C(=O)N[C@@H](CO)C(=O)N[C@@H](CCCCN)C(=O)N[C@@H](CC(C)C)C(=O)N[C@@H](Cc1ccccc1)C(=O)O` [TU1:MTD] (H-CNGRCGGKLLNLISKLF-OH), in the data set with BALB/c mice, the “Movement Activities” value was “Slow” and the “toxicity by mouse movements” value is recorded as “toxic”.

Take `CC[C@H](C)[C@H](NC(=O)[C@H](CC(C)C)NC(=O)[C@H](CC(N)=O)NC(=O)[C@H](CC(C)C)NC(=O)[C@H](CC(C)C)NC(=O)[C@H](CCCCN)NC(=O)CNC(=O)CNC(=O)[C@H](CS)NC(=O)CNC(=O)[C@H](CCCNC(=N)N)NC(=O)[C@@H](NC(=O)[C@H](CCCNC(=N)N)NC(=O)[C@H](CCCCN)NC(=O)[C@H](CC(N)=O)NC(=O)CNC(=O)[C@@H](N)CS)[C@@H](C)O)C(=O)N[C@@H](CO)C(=O)N[C@@H](CCCCN)C(=O)N[C@@H](CC(C)C)C(=O)N[C@@H](Cc1ccccc1)C(=O)O` [TU3:MTD] (H-CGNKRTRGCGGKLLNLISKLF-OH): in the data set with BALB/c mice, the “Movement Activities” value is “Normal” and the “toxicity by mouse movements” value was “no apparent toxicities”.

With `CC[C@H](C)[C@H](NC(=O)[C@H](CC(C)C)NC(=O)[C@H](CC(N)=O)NC(=O)[C@H](CC(C)C)NC(=O)[C@H](CC(C)C)NC(=O)[C@H](CCCCN)NC(=O)[C@H](CS)NC(=O)[C@H](CC(=O)O)NC(=O)[C@@H]1CCCN1C(=O)CNC(=O)[C@H](CCCCN)NC(=O)[C@H](CC(=O)O)NC(=O)[C@H](CCCNC(=N)N)NC(=O)CNC(=O)[C@@H](N)CS)C(=O)N[C@@H](CO)C(=O)N[C@@H](CCCCN)C(=O)N[C@@H](CC(C)C)C(=O)N[C@@H](Cc1ccccc1)C(=O)O` [TU6:MTD] (H-CGRDKGPDCKLLNLISKLF-OH), in the data set with BALB/c mice, the “Movement Activities” value is reported as “Normal” and the “toxicity by mouse movements” value was “no apparent toxicities”.

On to `CC[C@H](C)[C@H](NC(=O)[C@H](CC(C)C)NC(=O)[C@H](CC(N)=O)NC(=O)[C@H](CC(C)C)NC(=O)[C@H](CC(C)C)NC(=O)[C@@H](N)CCCCN)C(=O)N[C@@H](CO)C(=O)N[C@@H](CCCCN)C(=O)N[C@@H](CC(C)C)C(=O)N[C@@H](Cc1ccccc1)C(=O)N[C@@H](CS)C(=O)NCC(=O)N[C@@H](CCCNC(=N)N)C(=O)N[C@@H](CC(=O)O)C(=O)N[C@@H](CCCCN)C(=O)NCC(=O)N1CCC[C@H]1C(=O)N[C@@H](CC(=O)O)C(=O)N[C@@H](CS)C(=O)O` [TU7:MTD] (H-KLLNLISKLFCGRDKGPDC-OH), for which the “toxicity by mouse movements” value in the data set with BALB/c mice is “no apparent toxicities”.

In the case of `CC[C@H](C)[C@H](NC(=O)[C@H](CC(C)C)NC(=O)[C@H](CC(N)=O)NC(=O)[C@H](CC(C)C)NC(=O)[C@H](CC(C)C)NC(=O)[C@@H](N)CCCCN)C(=O)N[C@@H](CO)C(=O)N[C@@H](CCCCN)C(=O)N[C@@H](CC(C)C)C(=O)N[C@@H](Cc1ccccc1)C(=O)N[C@@H](CS)C(=O)NCC(=O)N[C@@H](CCCNC(=N)N)C(=O)N[C@@H](CC(=O)O)C(=O)N[C@@H](CCCCN)C(=O)N[C@@H](CCCNC(=N)N)C(=O)N[C@@H](CC(C)C)C(=O)N[C@@H](Cc1ccc(O)cc1)C(=O)N[C@@H](CC(=O)O)C(=O)N[C@@H](CS)C(=O)O` [TU8:MTD] (H-KLLNLISKLFCGRDKRLYDC-OH), in the data set on BALB/c mice, the “Movement Activities” value was “Dead” and the “toxicity by mouse movements” value was “highly toxic”. Also, in the data set on CT26 cells, the “cytotoxicity to CT26 cells in vitro” value is “not cytotoxic”.

For the compound `CC[C@H](C)[C@H](NC(=O)[C@H](CC(C)C)NC(=O)[C@H](CC(N)=O)NC(=O)[C@H](CC(C)C)NC(=O)[C@H](CC(C)C)NC(=O)[C@H](CCCCN)NC(=O)[C@H](CS)NC(=O)[C@H](CC(=O)O)NC(=O)[C@@H]1CCCN1C(=O)CNC(=O)[C@H](CCCCN)NC(=O)[C@H](CC(=O)O)NC(=O)CNC(=O)[C@H](CCCNC(=N)N)NC(=O)[C@@H](N)CS)C(=O)N[C@@H](CO)C(=O)N[C@@H](CCCCN)C(=O)N[C@@H](CC(C)C)C(=O)N[C@@H](Cc1ccccc1)C(=O)O` [TU9:MTD] (H-CRGDKGPDCKLLNLISKLF-OH), in the data set with BALB/c mice, the “Movement Activities” value is listed as “Normal” and the “toxicity by mouse movements” value is on record as “no apparent toxicities”.

Consider CGKRKGGKLLNLISKLF [TU19:MTD], for which, in the data set on BALB/c mice, the “Movement Activities” value is “Normal” and the “toxicity by mouse movements” value is “no apparent toxicities”.

With CRGDKGGKLLNLISKLF [TU21:MTD], in the data set with BALB/c mice, the “Movement Activities” value was “Slow” and the “toxicity by mouse movements” value is reported as “toxic”.

For the compound “KLLNLISKLFCRGDKGPDC (disulfide 11-19 (inferred)) [TU10:MTD]”, in the data set with BALB/c mice, the “Movement Activities” value is “Slow” and the “toxicity by mouse movements” value is reported as “toxic”.

With KLLNLISKLFGGCGKRK [TU20:MTD], in the data set on BALB/c mice, the “Movement Activities” value is given as “Normal” and the “toxicity by mouse movements” value is “no apparent toxicities”.

Regarding KLLNLISKLFGGCRGDK [TU22:MTD], in the data set with BALB/c mice, the “Movement Activities” value is recorded as “Normal” and the “toxicity by mouse movements” value is on record as “no apparent toxicities”.

With KLLNLISKLFGGRLLRLLRLLR [TU16:MTD], in the data set on BALB/c mice, the “Movement Activities” value is reported as “Normal” and the “toxicity by mouse movements” value is listed as “no apparent toxicities”.

For the compound KLLNLISKLFGGRPARPAR [TU18:MTD], in the data set with BALB/c mice, the “Movement Activities” value is reported as “Slow” and the “toxicity by mouse movements” value was “toxic”.

As for RLLRLLRLLRGGKLLNLISKLF [TU15:MTD], in the data set on BALB/c mice, the “Movement Activities” value was “Slow” and the “toxicity by mouse movements” value is “toxic”.

As to WDLAWMFRLPVGKLLNLISKLF [TU5:MTD], in the data set on BALB/c mice, the “Movement Activities” value is “Normal” and the “toxicity by mouse movements” value is reported as “no apparent toxicities”.

For the compound WIFPWIQLKLLNLISKLF [TU4:MTD], in the data set with BALB/c mice, the “Movement Activities” value was “Slow” and the “toxicity by mouse movements” value is recorded as “toxic”.
